How the values were obtained:
[1] = ONOOH scavenging (protection against ONOOH induced DHR-123 oxidation); type: biochemical; settings: 50% inhibition of oxidation of DHR-123; 5 μM DHR-123, 0.7 μM ONOOH, pH 7.4, 37° C., n = 3; read-out: ONOO− scavenging activity, IC50 ± SEM
Experimental: The protection against ONOOH induced DHR-123 oxidation of the compounds was measured as described by Kooy et al (Peroxynitrite-mediated oxidation of dihydrorhodamine 123. Free Radic Biol Med, 16; 149-56). In short, 5 μM DHR-123 and various concentrations of a scavenger were incubated in 100 mM sodium phosphate buffer (pH 7.4) at 37° C. Subsequently, ONOOH was added by pipetting a 10 μl aliquot into the tube while rapid vortexing, reaching a final concentration of 0.7 μM. Fluorescence measurements were performed with excitation and emission wavelengths of respectively 500 and 536 nm. The effects are expressed as the concentration of the scavenger giving 50% inhibition of the oxidation of DHR-123 (IC50).

[2] = O2•- scavenging (xanthine/xanthine oxidase, NBT reduction); type: biochemical; settings: 50% decrease in the reduction of NBT; xanthine 150 μM, XO 5.5 mU/ml, pH 7.8, 37° C., n = 3; read-out: O2•− scavenging activity, IC50 ± SEM
Experimental: O2•- were generated by the reaction of xanthine (150 μM) and xanthine oxidase (XO) (5.5 mU/ml) in 50 mM potassium phosphate buffer (pH 7.8). O2•-radicals were detected by nitroblue tetrazolium (NBT, 50 μM). NBT undergoes reduction by O2•- to its formazan. The rate of this reduction was monitored spectrophotometrically at 560 nm during 2 minutes. Various concentrations of a scavenger were added and incubated at 37° C. The reaction was started by the addition of XO. The O2•-scavenging potential is expressed as the concentration of the scavenger giving a 50% decrease in the reduction of NBT (IC50).
To adjust for a possible inhibitory effect of the scavenger on the activity of XO, the highest concentration of the scavenger was incubated at 37° C. and subsequently the rate of the urate formation was measured at 293 nm during 2 minutes.

diaphragm muscle strips = experiment: Organ bath experiments: force of diaphragm strips after H2O2 incubation; parameters: species or system Male Lewis rats; settings: all applied stimulation frequencies, compared with control; FIG. 1
Description: Male Lewis rats (age between 12 and 14 weeks old) were used. After decapitation, the diaphragm was rapidly excised, and small strips (around 2 mm width and 1 cm long) were cut and subsequently mounted in thermostated organ baths, containing Krebs buffer gassed with a mixture of 95% O2 and 5% CO2, pH 7.4. Each diaphragm strip was connected vertically to an isometric transducer. The composition of the Krebs buffer was (mM): NaCl (117.5), KCl (5.6), MgSO4 (1.18), CaCl2 (2.5), NaHPO4 (1.28), NaHCO3 (25) and glucose (5.5). During the experiment, the buffer was changed every 15 minutes. Field stimulation was created along the entire length of each muscle strip with platinum electrodes. At the beginning of the experiment, the strips were washed during 45 minutes at room temperature to minimize temperature dependent deterioration. Thereafter, the water bath was turned on at 37° C. (15 minutes before the start of the experiments). […] First the Pt (twitch tension at a stimulation of 1 Hz) and Po (maximal specific tension at a stimulation of 100 Hz, 250 ms duration) were determined. Thereafter, the response of the diaphragm muscle strips to increasing stimulus frequencies was assessed at Lo by the application of 10, 20, 33, 50 and 100 Hz-pulses applied in 250 ms trains. […] After that were again determined: Pt, Po, force-frequency and fatigue.

| IC50 [1] [µM] | IC50 [2] [µM] | SMILES | effect on muscle force (diaphragm muscle strips) |
| --- | --- | --- | --- |
| > 200 | > 100 | O=C(O)CCCC[C@@H]1CCSS1 (racemic) [Lipoic acid, reference compound] |  |
|  |  | OO [H2O2, hydrogen peroxide] | dose-dependently reduces the force |
| 6.6 ± 0.2 | > 200 | COc1cc(CCO)ccc1O [Homovanillic alcohol] |  |
| 99 ± 16 | > 200 | OCCc1ccc(O)cc1 [Tyrosol] |  |

— patent publication US20110172301A1, “Use of anti-oxidant compounds for muscle recovery” (DSM IP ASSETS B.V., priority 2004, published 2011)
